Results reported in patent US20240082260A1, “INHIBITOR OF PROTEIN KINASE D FOR USE IN PREVENTION OR TREATMENT OF HYPERLIPIDEMIA” (priority 2021, published 2024).

Assays:
Caco2 cells = experiment: Lipid transport (14C-fatty acid release) through Caco2 monolayer in transwell system; type: cell-based, human; conditions: 20 μM, 24 h, vs DMSO; FIG. 8
Protocol: Lipid transport studies were assessed in Caco2 cells seeded in trans-wells. 1.5×10^5 cells were seeded into a 12-well cell culture insert of 1 μm pore size Trans-well and maintained in for 14 consecutive days with media change every two days. For the lipids uptake and release, the apical side of the membrane was loaded with radioactive ^14C-palmitic acid (0.2 μCi), oleic acid (1 mM), and taurocholic acid (2 mM) in DMEM high glucose 10% FBS. The basal medium contained DMEM high glucose 0.1% FBS. After 24 hours of incubation, cell lysates and the apical and basolateral medium was collected and the ^14C-palmitic acid was measured in a scintillation counter for aliquots of apical and basal medium and for cell lysate. The same protocol was used in Caco2 cells that were treated with CRT0066101 (3 and 5 μM) for 24 h (added together with the mentioned radioactive fatty acid cocktail).
In order to test the potential of PKD inhibitors to restrict lipid transport via epithelial monolayer, we employed Caco2 cells seeded into the Transwells system. Briefly, we plated 1.5×10^5 cells seeded into a 12-well cell culture inserts of 1-μm pore size Transwell and maintained in for 14 consecutive days with media change every 2 days. For the lipid uptake and release, the apical side of the membrane was loaded with radioactive 14C-palmitic acid (0.2 μCi), oleic acid (1 mM), and taurocholic acid (2 mM) in DMEM high glucose 10% FBS. The basal medium contained DMEM high glucose 0.1% FBS. After 24 h of incubation, cell lysates and the apical and basolateral medium were collected and the 14C-palmitic acid was measured in a scintillation counter for aliquots of apical and basal medium and for cell lysate. To assess the efficiency of different PKD inhibitors, Caco2 cells were treated with either CRT0066101 (5 μM), CID2011756 (20 μM), CID755673 (20 μM), 1-NM-PP1 (20 μM), or control solvent solution (DMSO) for 24 h (added together with the mentioned radioactive FA cocktail).

LDLR-deficient mice = conditions: cited from earlier work
male C57BL/6 mice on HFD = experiment: Oral PKD inhibitor in HFD-fed C57BL/6 mice (diet-induced obesity and diabetes); type: in vivo, mouse; conditions: oral administration, mice; also said to prevent hyperlipidemia and diabetes and improve microflora
Protocol: Mice body weight development was closely monitored and reported here on a weekly basis when mice were on a specified diet. All experiments were performed in male mice.
PKD inhibitor CRT0066101 was dissolved in water (10 mg/kg) and administered orally to the mice by daily gavage, while the control mice were gavaged with water. Mice were maintained on the specified diets and had ab libitum access to food and water. C57BL/6 mice were administered CRT inhibitor treatment at 4-weeks of age, while for the rescue experiment, inhibitor was given under the same circumstances but treatment started only after 7 weeks of HFD feeding. Intestinal barrier permeability was further assessed 1 hour after oral gavage of FITC-Dextran 4.
Energy expenditure, food intake, and activity measurements were obtained in a PhenoMaster (TSE Systems) as previously described (El-Merahbi, Viera et al., 2020, Trujillo Viera, El-Merahbi et al., 2016). Briefly, mice were kept in separate metabolic cages with unlimited access to water and to the specified diet. After 48 hours of acclimation, data was collected every 10 min including photobeam breaks, oxygen consumption, carbon dioxide dissipation, and food and water consumption. Results in bars represent the average of each night/day cycle.
A glucose tolerance test (GTT) was performed after overnight fasting. Mice blood glucose was assessed before and 15, 30, 60, 90, and 120 minutes after intraperitoneal injection of glucose (2 g/kg). For the Insulin tolerance test (ITT), the same measurements were performed after 4 hours of fasting and intraperitoneal injection of 0.5 U/kg of recombinant insulin. For glucose measurements, one blood drop was drawn from the tail tip into a test strip and measured with a glucometer (Accu-Chek® Roche).
Lipids tolerance test was performed as described previously (Wang, Rong et al., 2016b). Briefly, overnight fasted mice were gavaged with olive oil (10 μL/g body weight). Blood was collected at indicated times for measurement of serum triglycerides content. For lipids absorption under tyloxapol treatment, 250 μg/g of body weight were i.p. injected to mice 30 minutes before the gavage of olive oil 5 μL/g body weight.
Liver triglycerides were measured by homogenization of 50 mg of liver in 500 uL of lysis buffer and lipids extraction in methanol:chloroform, phase extraction and evaporation. The lipids were redissolved in DMSO and triglycerides quantified with the mentioned kit and according to the manufacturers' instructions.
The bedding of single-caged mice was collected and the ingested food ingestion from the individual mice was assessed. All the stools were manually collected. After overnight dissecation at 60° C., the samples were weighted and frozen for further analysis. The amount of feces produced per mouse was compared to the amount of food consumed and the weight gain. About 3 g of dried feces material were homogenized and 1 g was pressed into a tablet and accurately weighted. Calorie content from feces and diet was measured in duplicates in a 6400 Automatic Isoperibol calorimeter (Parr Instrument Company). To analyze energy excreted, the amount of energy in feces was compared to the amount of energy ingested (the product between grams of food and caloric content of the food). Lipids extraction from feces was performed as previously described (Kraus, Yang et al., 2015).
Proteins from tissues and cell culture were extracted with RIPA buffer supplemented with phosphatase and protease inhibitor (PPI, Thermo Fisher Scientific). Protein concentration was measured by Pierce™ BCA Protein Assay Kit (Thermo Fisher Scientific) following the manufacturer's protocol. Reduced protein extracts were separated on 10% SDS-PAGE gels by electrophoresis and transferred to PVDF membranes under wet transfer. Membranes were blocked in 5% (w/v) milk in TBS-T before overnight probing with indicated primary antibodies at 4° C., followed by TBS-T washes and incubation with corresponding secondary antibody.

SMILES	lipid transport through the Caco2 monolayer (Caco2 cells)	course of atherosclerosis (LDLR-deficient mice)	obesity induced by a high-fat diet (summary statement) (male C57BL/6 mice on HFD)
CC(C)(C)n1nc(Cc2cccc3ccccc23)c2c(N)ncnc21 [1-NM-PP1, 1-(tert-butyl)-3-(nafthalen-1-ylmethyl)-1H-pirazol[3,4-d]pyrimidine-4-amine]	significant reduction in lipid transport		
CC(C)c1c(C(=O)Nc2ccccc2)c(-c2ccccc2)c(-c2ccc(F)cc2)n1CC[C@@H](O)C[C@@H](O)CC(=O)O [Atorvastatin]		efficiently attenuating the course of atherosclerosis	
O=C1NCCCc2c1oc1ccc(O)cc21 [CID755673]	significant reduction in lipid transport		significantly reduces obesity induced by a high-fat diet
O=C(Nc1ccc(CN2CCOCC2)cc1)c1ccc(-c2cccc(Cl)c2)o1 [CID2011756]	significant reduction in lipid transport		
